The values below come from patent US20240425517A1, “NOVEL COMPOUND FOR DEGRADATION OF TARGET PROTEIN OR POLYPEPTIDE BY POLYUBIQUITINATION” (PRAZER THERAPEUTICS INC., priority 2021, published 2024).

The assay addresses T1, BRD4 proteins (Homo sapiens, UniProt O60885).
T1 construct: endogenous in cells; host or cells: MM.1S
The assay can be described thus: Degradation of BRD4 protein in MM.1S cell lines (Western blot densitometry). The note with it: MM.1S cells, 10 μM, 24 hours. The assay is classed as cell-based. The essentials:
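MM.1S cells in RPMI-1640 with 10% FBS were treated with each degrader at 10 μM for 24 h. RIPA lysates were analysed by SDS-PAGE/Western blot with β-actin as reference, and BRD4 band densitometry was scored as reduction <40% (+), 40-<70% (++) or ≥70% (+++).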
In general terms: In western blotting, separated proteins are transferred to a membrane and probed.

In the case of `COC(=O)c1ccc(C(=O)N2CCC3(CC2)CN(C(=O)C[C@@H]2N=C(c4ccc(Cl)cc4)c4c(sc(C)c4C)-n4c(C)nnc42)C3)cc1C#CCN` [5-39′, methyl (S)-2-(3-aminoprop-1-yn-1-yl)-4-(2-(2-(4-(4-chlorophenyl)-2,3,9-trimethyl-6H-thieno[3,2-f][1,2,4]triazolo[4,3-a][1,4]diazepin-6-yl)acetyl)-2,7-diazaspiro[3.5]nonane-7-carbonyl)benzoate trifluoroacetic acid], the “BRD4 degrading capacity (%)” value is given as “++ (the degrading capacity was reduced by 40% to 70% (exclusive of 70))”.
Under `COC(=O)c1ccc(N2CC3(CN(C(=O)C[C@@H]4N=C(c5ccc(Cl)cc5)c5c(sc(C)c5C)-n5c(C)nnc54)C3)C2)cc1C#CCN` [5-40′, methyl (S)-2-(3-aminoprop-1-yn-1-yl)-4-(6-(2-(4-(4-chlorophenyl)-2,3,9-trimethyl-6H-thieno[3,2-f][1,2,4]triazolo[4,3-a][1,4]diazepin-6-yl)acetyl)-2,6-diazaspiro[3.3]heptan-2-yl)benzoate trifluoroacetic acid] stands “+++ (the degrading capacity was reduced by 70% or more)”; under `COC(=O)c1ccc(C(=O)N2CC3(CN(C(=O)C[C@@H]4N=C(c5ccc(Cl)cc5)c5c(sc(C)c5C)-n5c(C)nnc54)C3)C2)cc1C#CCN` [5-41′, methyl (S)-2-(3-aminoprop-1-yn-1-yl)-4-(6-(2-(4-(4-chlorophenyl)-2,3,9-trimethyl-6H-thieno[3,2-f][1,2,4]triazolo[4,3-a][1,4]diazepin-6-yl)acetyl)-2,6-diazaspiro[3.3]heptane-2-carbonyl)benzoate trifluoroacetic acid], “+++ (the degrading capacity was reduced by 70% or more)”; under `COC(=O)c1ccc(N2CC3CN(C(=O)C[C@@H]4N=C(c5ccc(Cl)cc5)c5c(sc(C)c5C)-n5c(C)nnc54)CC3C2)cc1C#CCN` (stereo partly drawn) [5-44′, methyl 2-(3-aminoprop-1-yn-1-yl)-4-(5-(2-((S)-4-(4-chlorophenyl)-2,3,9-trimethyl-6H-thieno[3,2-f][1,2,4]triazolo[4,3-a][1,4]diazepin-6-yl)acetyl)hexahydropyrrolo[3,4-c]pyrrol-2(1H)-yl)benzoate trifluoroacetic acid], “++ (the degrading capacity was reduced by 40% to 70% (exclusive of 70))”.
The value for `Cc1sc2c(c1C)C(c1ccc(Cl)cc1)=N[C@@H](CC(=O)NCCCC(=O)Nc1ccc(C(=O)O)c(C#CCN)c1)c1nnc(C)n1-2.Cl` [5-53′, (S)-2-(3-aminoprop-1-yn-1-yl)-4-(4-(2-(4-(4-chlorophenyl)-2,3,9-trimethyl-6H-thieno[3,2-f][1,2,4]triazolo[4,3-a][1,4]diazepin-6-yl)acetamido)butanamido)benzoic acid hydrochloride] was “++ (the degrading capacity was reduced by 40% to 70% (exclusive of 70))”.
The value for `Cc1sc2c(c1C)C(c1ccc(Cl)cc1)=N[C@@H](CC(=O)NCCCC(=O)Nc1ccc(C(N)=O)c(C#CCN)c1)c1nnc(C)n1-2.Cl` [5-59′, (S)-2-(3-aminoprop-1-yn-1-yl)-4-(4-(2-(4-(4-chlorophenyl)-2,3,9-trimethyl-6H-thieno[3,2-f][1,2,4]triazolo[4,3-a][1,4]diazepin-6-yl)acetamido)butanamido)benzamide hydrochloride] was “+++ (the degrading capacity was reduced by 70% or more)”; that for `Cc1sc2c(c1C)C(c1ccc(Cl)cc1)=N[C@@H](CC(=O)NCCCC(=O)Nc1ccc(C(=O)N(C)C)c(C#CCN)c1)c1nnc(C)n1-2.Cl` [5-61′, (S)-2-(3-aminoprop-1-yn-1-yl)-4-(4-(2-(4-(4-chlorophenyl)-2,3,9-trimethyl-6H-thieno[3,2-f][1,2,4]triazolo[4,3-a][1,4]diazepin-6-yl)acetamido)butanamido)-N,N-dimethylbenzamide hydrochloride] was “++ (the degrading capacity was reduced by 40% to 70% (exclusive of 70))”.
For `COc1ccc(NC(=O)CCCNC(=O)C[C@@H]2N=C(c3ccc(Cl)cc3)c3c(sc(C)c3C)-n3c(C)nnc32)cc1C#CCN` [5-63′, (S)—N-(3-(3-aminoprop-1-yn-1-yl)-4-methoxyphenyl)-4-(2-(4-(4-chlorophenyl)-2,3,9-trimethyl-6H-thieno[3,2-f][1,2,4]triazolo[4,3-a][1,4]diazepin-6-yl)acetamido)butanamide trifluoroacetic acid], the “BRD4 degrading capacity (%)” value is reported as “++ (the degrading capacity was reduced by 40% to 70% (exclusive of 70))”.
Regarding `Cc1ccc(NC(=O)CCCNC(=O)C[C@@H]2N=C(c3ccc(Cl)cc3)c3c(sc(C)c3C)-n3c(C)nnc32)cc1C#CCN.Cl` [5-65′, (S)—N-(3-(3-aminoprop-1-yn-1-yl)-4-methylphenyl)-4-(2-(4-(4-chlorophenyl)-2,3,9-trimethyl-6H-thieno[3,2-f][1,2,4]triazolo[4,3-a][1,4]diazepin-6-yl)acetamido)butanamide hydrochloride], the “BRD4 degrading capacity (%)” value is “+ (the degrading capacity of each BRD4 degrader was reduced by less than 40%)”.
In the case of `Cc1sc2c(c1C)C(c1ccc(Cl)cc1)=N[C@@H](CC(=O)NCCCC(=O)Nc1ccc(C(F)(F)F)c(C#CCN)c1)c1nnc(C)n1-2.Cl` [5-75′, (S)—N-(3-(3-aminoprop-1-yn-1-yl)-4-(trifluoromethyl)phenyl)-4-(2-(4-(4-chlorophenyl)-2,3,9-trimethyl-6H-thieno[3,2-f][1,2,4]triazolo[4,3-a][1,4]diazepin-6-yl)acetamido)butanamide hydrochloride], the “BRD4 degrading capacity (%)” value is “+++ (the degrading capacity was reduced by 70% or more)”.
As for `Cc1sc2c(c1C)C(c1ccc(Cl)cc1)=N[C@@H](CC(=O)NCCCC(=O)Nc1ccc(F)c(C#CCN)c1)c1nnc(C)n1-2.Cl` [5-77′, (S)—N-(3-(3-aminoprop-1-yn-1-yl)-4-fluorophenyl)-4-(2-(4-(4-chlorophenyl)-2,3,9-trimethyl-6H-thieno[3,2-f][1,2,4]triazolo[4,3-a][1,4]diazepin-6-yl)acetamido)butanamide hydrochloride], the “BRD4 degrading capacity (%)” value is given as “+ (the degrading capacity of each BRD4 degrader was reduced by less than 40%)”.
As to `COC(=O)c1c(C)cc(NC(=O)CCCNC(=O)C[C@@H]2N=C(c3ccc(Cl)cc3)c3c(sc(C)c3C)-n3c(C)nnc32)cc1C#CCN.Cl` [5-78′, methyl (S)-2-(3-aminoprop-1-yn-1-yl)-4-(4-(2-(4-(4-chlorophenyl)-2,3,9-trimethyl-6H-thieno[3,2-f][1,2,4]triazolo[4,3-a][1,4]diazepin-6-yl)acetamido)butanamido)-6-methylbenzoate hydrochloride], the “BRD4 degrading capacity (%)” value is on record as “+ (the degrading capacity of each BRD4 degrader was reduced by less than 40%)”.
Under `Cc1sc2c(c1C)C(c1ccc(Cl)cc1)=N[C@@H](CC(=O)NCCCC(=O)Nc1ccc(-c3cnc(C(F)(F)F)nc3)c(C#CCN)c1)c1nnc(C)n1-2.Cl` [5-81′, (S)—N-(3-(3-aminoprop-1-yn-1-yl)-4-(2-(trifluoromethyl)pyrimidin-5-yl)phenyl)-4-(2-(4-(4-chlorophenyl)-2,3,9-trimethyl-6H-thieno[3,2-f][1,2,4]triazolo[4,3-a][1,4]diazepin-6-yl)acetamido)butanamide hydrochloride] stands “+++ (the degrading capacity was reduced by 70% or more)”.
Under `COC(=O)c1ccc(NCC2CCN(C(=O)C[C@@H]3N=C(c4ccc(Cl)cc4)c4c(sc(C)c4C)-n4c(C)nnc43)CC2)cc1C#CCN` [5-85′, methyl (S)-2-(3-aminoprop-1-yn-1-yl)-4-(((1-(2-(4-(4-chlorophenyl)-2,3,9-trimethyl-6H-thieno[3,2-f][1,2,4]triazolo[4,3-a][1,4]diazepin-6-yl)acetyl)piperidin-4-yl)methyl)amino)benzoate trifluoroacetic acid] stands “+++ (the degrading capacity was reduced by 70% or more)”; under `COC(=O)c1ccc(NC2CCN(C(=O)C[C@@H]3N=C(c4ccc(Cl)cc4)c4c(sc(C)c4C)-n4c(C)nnc43)CC2)cc1C#CCN` [5-86′, methyl (S)-2-(3-aminoprop-1-yn-1-yl)-4-((1-(2-(4-(4-chlorophenyl)-2,3,9-trimethyl-6H-thieno[3,2-f][1,2,4]triazolo[4,3-a][1,4]diazepin-6-yl)acetyl)piperidin-4-yl)amino)benzoate], “+++ (the degrading capacity was reduced by 70% or more)”; under `COC(=O)c1cc(C#CCN)cc(NC(=O)CCCNC(=O)C[C@@H]2N=C(c3ccc(Cl)cc3)c3c(sc(C)c3C)-n3c(C)nnc32)c1.Cl` [5-89′, methyl (S)-3-(3-aminoprop-1-yn-1-yl)-5-(4-(2-(4-(4-chlorophenyl)-2,3,9-trimethyl-6H-thieno[3,2-f][1,2,4]triazolo[4,3-a][1,4]diazepin-6-yl)acetamido)butanamido)benzoate hydrochloride], “+ (the degrading capacity of each BRD4 degrader was reduced by less than 40%)”.
The value for `COC(=O)c1ccc(C#CCN)cc1NC(=O)CCCNC(=O)C[C@@H]1N=C(c2ccc(Cl)cc2)c2c(sc(C)c2C)-n2c(C)nnc21.Cl` [5-90′, methyl (S)-4-(3-aminoprop-1-yn-1-yl)-2-(4-(2-(4-(4-chlorophenyl)-2,3,9-trimethyl-6H-thieno[3,2-f][1,2,4]triazolo[4,3-a][1,4]diazepin-6-yl)acetamido)butanamido)benzoate hydrochloride] was “+++ (the degrading capacity was reduced by 70% or more)”; that for `COC(=O)c1nc(NC(=O)CCCNC(=O)C[C@@H]2N=C(c3ccc(Cl)cc3)c3c(sc(C)c3C)-n3c(C)nnc32)ccc1C#CCN.Cl` [5-96′, methyl (S)-3-(3-aminoprop-1-yn-1-yl)-6-(4-(2-(4-(4-chlorophenyl)-2,3,9-trimethyl-6H-thieno[3,2-f][1,2,4]triazolo[4,3-a][1,4]diazepin-6-yl)acetamido)butanamido)picolinate hydrochloride] was “+++ (the degrading capacity was reduced by 70% or more)”.
